For assay [1], the system named is Fonsecaea compacta. The assay can be described thus: Antimicrobial activity against Fonsecaea compacta isolates. The assay is classed as functional.
The subject of assay [2] is Aspergillus fumigatus. The assay can be described thus: Antimicrobial activity against Aspergillus fumigatus isolates. It counts as functional.
Assay [3] has as its system Nannizzia gypsea. The assay can be described thus: Antimicrobial activity against Microsporum gypseum isolates. It counts as functional.
Assay [4] concerns Candida parapsilosis. The assay can be described thus: Antimicrobial activity against Candida parapsilosis isolates. Conditions: Lodderomyces parapsilosis.
Assay [5] has as its system Candida tropicalis. The experiment in a line: Antimicrobial activity against Candida tropicalis isolates. It counts as functional.
Assay [6] concerns Candida albicans. The assay can be described thus: Antimicrobial activity against Candida albicans ATCC 76615. The assay is classed as functional.
Assay [7] has as its system Cryptococcus neoformans. The assay can be described thus: Antimicrobial activity against Cryptococcus neoformans ATCC 32609. It counts as functional.
For assay [8], the system named is Trichophyton rubrum. The assay can be described thus: Antimicrobial activity against Trichophyton rubrum isolates. It counts as functional.

Values after ≈ are worked out from the molar mass of the structure shown.

Turning to `OCc1ccc(-c2ccc(OCC(O)(Cn3cncn3)c3ccc(F)cc3F)cc2)cc1` (centres undefined), the MIC (commonly the smallest concentration in the dilution series that meets the test's criterion for growth inhibition) in assay [1] is 16 µg/mL (≈ 36.6 µM); in assay [2] it was > 64 µg/mL; in assay [3] it was 1 µg/mL (≈ 2.29 µM); in assay [4], 0.0625 µg/mL (≈ 0.143 µM); in assay [5], 0.0156 µg/mL (≈ 0.0357 µM); in assay [6] it was 0.0156 µg/mL (≈ 0.0357 µM). For the same compound, the MIC in assay [7] and in assay [8] was 1 µg/mL (≈ 2.29 µM) each time.

`OC(Cn1cncn1)(Cn1cncn1)c1ccc(F)cc1F` [FLUCONAZOLE]: the MIC is 16 µg/mL (≈ 52.2 µM) in assay [1]; > 64 µg/mL in assay [2]; 1 µg/mL (≈ 3.27 µM) in assay [3]; 4 µg/mL (≈ 13.1 µM) in assay [4]; 1 µg/mL (≈ 3.27 µM) in assay [5]; 16 µg/mL (≈ 52.2 µM) in assay [6]. Also, the MIC stood at 0.25 µg/mL (≈ 0.816 µM) in assay [7] and 1 µg/mL (≈ 3.27 µM) in assay [8].

Regarding `OCCNCc1ccc(-c2ccc(OCC(O)(Cn3cncn3)c3ccc(F)cc3F)cc2)cc1` (centres undefined), the MIC in assay [1] was 16 µg/mL (≈ 33.3 µM); in assay [2], > 64 µg/mL; in assay [3] it was 16 µg/mL (≈ 33.3 µM); in assay [4], 1 µg/mL (≈ 2.08 µM); in assay [5] it was 1 µg/mL (≈ 2.08 µM); in assay [6], 4 µg/mL (≈ 8.32 µM). For the same compound, the MIC in assay [7] was found to be 64 µg/mL (≈ 133 µM); in assay [8], 1 µg/mL (≈ 2.08 µM).

On to `C[C@@H]1COC[C@H](C)N1Cc1ccc(C(=O)Nc2ccc(-c3ccc(OCC(O)(Cn4cncn4)c4ccc(F)cc4F)cc3)cn2)cc1` (some centres undefined), for which the MIC is 16 µg/mL (≈ 24.4 µM) in assay [1]; > 64 µg/mL in assay [2]; > 64 µg/mL in assay [3]; 0.0625 µg/mL (≈ 0.0955 µM) in assay [4]; 0.0625 µg/mL (≈ 0.0955 µM) in assay [5]; 0.0625 µg/mL (≈ 0.0955 µM) in assay [6]. The values for the MIC in assay [7] and in assay [8] were 4 µg/mL (≈ 6.11 µM) and > 64 µg/mL, respectively.

Consider `O=C(O)c1ccc(NCc2ccc(-c3ccc(OCC(O)(Cn4cncn4)c4ccc(F)cc4F)cc3)cc2)cc1` (centres undefined), for which the MIC was 1 µg/mL (≈ 1.8 µM) in assay [1]; 16 µg/mL (≈ 28.7 µM) in assay [2]; 1 µg/mL (≈ 1.8 µM) in assay [3]; 0.0625 µg/mL (≈ 0.112 µM) in assay [4]; 0.0039 µg/mL (≈ 0.00701 µM) in assay [5]; 0.0156 µg/mL (≈ 0.028 µM) in assay [6]. For the same compound, the MIC in assay [7] was > 64 µg/mL; in assay [8], 0.25 µg/mL (≈ 0.449 µM).

As for `O=C(CN1CCNCC1)Nc1ccc(-c2ccc(OCC(O)(Cn3cncn3)c3ccc(F)cc3F)cc2)cn1` (centres undefined), the MIC in assay [1] was 1 µg/mL (≈ 1.82 µM); in assay [2], > 64 µg/mL; in assay [3] it was 1 µg/mL (≈ 1.82 µM); in assay [4], 4 µg/mL (≈ 7.28 µM); in assay [5] it was 1 µg/mL (≈ 1.82 µM); in assay [6], 16 µg/mL (≈ 29.1 µM). In addition, the MIC in assay [7] came to 64 µg/mL (≈ 116 µM); in assay [8] it was 1 µg/mL (≈ 1.82 µM).

Turning to `CC(=O)N1CCN(c2ccc(OCC3COC(Cn4ccnc4)(c4ccc(Cl)cc4Cl)O3)cc2)CC1` (centres undefined) [KETOCONAZOLE], the MIC worked out at 0.25 µg/mL (≈ 0.47 µM) in assay [1]; 1 µg/mL (≈ 1.88 µM) in assay [2]; 0.25 µg/mL (≈ 0.47 µM) in assay [3]; 0.0625 µg/mL (≈ 0.118 µM) in assay [4]; 0.0625 µg/mL (≈ 0.118 µM) in assay [5]; 0.25 µg/mL (≈ 0.47 µM) in assay [6]. In addition, the MIC in assay [7] turned out to be 0.0156 µg/mL (≈ 0.0294 µM); in assay [8], 0.25 µg/mL (≈ 0.47 µM).

For `CN(Cc1ccc(-c2ccc(OCC(O)(Cn3cncn3)c3ccc(F)cc3F)cc2)cc1)c1ccccc1` (centres undefined), the MIC in assay [1] is 16 µg/mL (≈ 30.4 µM); in assay [2], > 64 µg/mL; in assay [3], > 64 µg/mL; in assay [4], 1 µg/mL (≈ 1.9 µM); in assay [5], 0.25 µg/mL (≈ 0.475 µM); in assay [6] it was 1 µg/mL (≈ 1.9 µM). Further, the MIC in assay [7] was determined as 1 µg/mL (≈ 1.9 µM); in assay [8] it was 16 µg/mL (≈ 30.4 µM).

Regarding `O=C(Nc1ccc(-c2ccc(OCC(O)(Cn3cncn3)c3ccc(F)cc3F)cc2)cn1)c1ccc(CCl)cc1` (centres undefined), the MIC is 1 µg/mL (≈ 1.74 µM) in assay [1]; > 64 µg/mL in assay [2]; 1 µg/mL (≈ 1.74 µM) in assay [3]; 0.0625 µg/mL (≈ 0.109 µM) in assay [4]; 0.0625 µg/mL (≈ 0.109 µM) in assay [5]; 0.0156 µg/mL (≈ 0.0271 µM) in assay [6]. The MIC in assay [7] and in assay [8] was 0.25 µg/mL (≈ 0.434 µM) in each case.

With `O=C(Nc1ccc(-c2ccc(OCC(O)(Cn3cncn3)c3ccc(F)cc3F)cc2)cn1)c1ccc(CN2CCCCC2)cc1` (centres undefined), the MIC in assay [1] stood at 1 µg/mL (≈ 1.6 µM); in assay [2], 4 µg/mL (≈ 6.4 µM); in assay [3], 1 µg/mL (≈ 1.6 µM); in assay [4] it was 0.0625 µg/mL (≈ 0.1 µM); in assay [5] it was 0.0625 µg/mL (≈ 0.1 µM); in assay [6] it was 0.0625 µg/mL (≈ 0.1 µM). Further, the MIC in assay [7] worked out at 1 µg/mL (≈ 1.6 µM); in assay [8], 0.25 µg/mL (≈ 0.4 µM).

Consider `CNCC(=O)Nc1ccc(-c2ccc(OCC(O)(Cn3cncn3)c3ccc(F)cc3F)cc2)cn1` (centres undefined), for which the MIC in assay [1] turned out to be 1 µg/mL (≈ 2.02 µM); in assay [2], 4 µg/mL (≈ 8.09 µM); in assay [3], 1 µg/mL (≈ 2.02 µM); in assay [4], 0.25 µg/mL (≈ 0.506 µM); in assay [5] it was 0.25 µg/mL (≈ 0.506 µM); in assay [6] it was 0.0625 µg/mL (≈ 0.126 µM). The MIC in assay [7] was found to be 16 µg/mL (≈ 32.4 µM); in assay [8] it was 1 µg/mL (≈ 2.02 µM).

Take `CCNCc1ccc(-c2ccc(OCC(O)(Cn3cncn3)c3ccc(F)cc3F)cc2)cc1` (centres undefined): the MIC was 1 µg/mL (≈ 2.15 µM) in assay [1]; > 64 µg/mL in assay [2]; 1 µg/mL (≈ 2.15 µM) in assay [3]; 0.25 µg/mL (≈ 0.538 µM) in assay [4]; 0.25 µg/mL (≈ 0.538 µM) in assay [5]; 1 µg/mL (≈ 2.15 µM) in assay [6]. For the same compound, the MIC in assay [7] was found to be 16 µg/mL (≈ 34.4 µM); in assay [8], 0.25 µg/mL (≈ 0.538 µM).

`CN(C/C=C/C#CC(C)(C)C)Cc1cccc2ccccc12` [TERBINAFINE]: the MIC in assay [1] stood at 0.0625 µg/mL (≈ 0.214 µM); in assay [2], 0.0625 µg/mL (≈ 0.214 µM); in assay [3] it was 0.0156 µg/mL (≈ 0.0535 µM); in assay [4] it was 0.25 µg/mL (≈ 0.858 µM); in assay [5], 0.25 µg/mL (≈ 0.858 µM); in assay [6] it was 1 µg/mL (≈ 3.43 µM). For the same compound, the MIC came out at 0.25 µg/mL (≈ 0.858 µM) in assay [7] and 0.0625 µg/mL (≈ 0.214 µM) in assay [8].

Take `CC(C)NCc1ccc(-c2ccc(OCC(O)(Cn3cncn3)c3ccc(F)cc3F)cc2)cc1` (centres undefined): the MIC is 4 µg/mL (≈ 8.36 µM) in assay [1]; > 64 µg/mL in assay [2]; 1 µg/mL (≈ 2.09 µM) in assay [3]; 0.0625 µg/mL (≈ 0.131 µM) in assay [4]; 0.0625 µg/mL (≈ 0.131 µM) in assay [5]; 1 µg/mL (≈ 2.09 µM) in assay [6]. Moreover, the values for the MIC in assay [7] and in assay [8] were 16 µg/mL (≈ 33.4 µM) and 0.25 µg/mL (≈ 0.522 µM), respectively.

Turning to `CCCCCCCNc1ccc(-c2ccc(OCC(O)(Cn3cncn3)c3ccc(F)cc3F)cc2)cn1` (centres undefined), the MIC in assay [1] was 1 µg/mL (≈ 1.92 µM); in assay [2], > 64 µg/mL; in assay [3], 1 µg/mL (≈ 1.92 µM); in assay [4], 1 µg/mL (≈ 1.92 µM); in assay [5], 0.25 µg/mL (≈ 0.479 µM); in assay [6], 0.25 µg/mL (≈ 0.479 µM). Also, the MIC in assay [7] came to 1 µg/mL (≈ 1.92 µM); in assay [8] it was 0.25 µg/mL (≈ 0.479 µM).

Regarding `Cc1cccc(C(=O)Nc2ccc(-c3ccc(OCC(O)(Cn4cncn4)c4ccc(F)cc4F)cc3)cn2)c1` (centres undefined), the MIC in assay [1] came to 1 µg/mL (≈ 1.85 µM); in assay [2], 64 µg/mL (≈ 118 µM); in assay [3], 1 µg/mL (≈ 1.85 µM); in assay [4], 0.25 µg/mL (≈ 0.462 µM); in assay [5] it was 0.25 µg/mL (≈ 0.462 µM); in assay [6] it was 0.25 µg/mL (≈ 0.462 µM). The MIC turned out to be 0.25 µg/mL (≈ 0.462 µM) in assay [7] and 1 µg/mL (≈ 1.85 µM) in assay [8].

Turning to `O=Cc1ccc(-c2ccc(OCC(O)(Cn3cncn3)c3ccc(F)cc3F)cc2)cc1` (centres undefined), the minimum inhibitory concentration (MIC) in assay [1] is 0.25 µg/mL (≈ 0.574 µM); in assay [2], > 64 µg/mL; in assay [3] it was 0.25 µg/mL (≈ 0.574 µM); in assay [4], > 64 µg/mL; in assay [5] it was 0.25 µg/mL (≈ 0.574 µM); in assay [6], 0.0625 µg/mL (≈ 0.144 µM). For the same compound, the MIC in assay [7] and in assay [8] was 1 µg/mL (≈ 2.3 µM) throughout.

Take `OC(COc1ccc(-c2ccc(NCc3cccc(Cl)c3)nc2)cc1)(Cn1cncn1)c1ccc(F)cc1F` (centres undefined): the MIC was 4 µg/mL (≈ 7.3 µM) in assay [1]; > 64 µg/mL in assay [2]; 1 µg/mL (≈ 1.82 µM) in assay [3]; 0.25 µg/mL (≈ 0.456 µM) in assay [4]; 0.25 µg/mL (≈ 0.456 µM) in assay [5]; 4 µg/mL (≈ 7.3 µM) in assay [6]. Also, the MIC in assay [7] and in assay [8] was 4 µg/mL (≈ 7.3 µM) in each case.

Values taken from ChEMBL document CHEMBL1143091, “Synthesis and SAR studies of biaryloxy-substituted triazoles as antifungal agents” (2008).
